Test results: patent US12178791B2, “Haloallylamine sulfone derivative inhibitors of lysyl oxidases and uses thereof” (Syntara Limited, priority 2018, dated 2024)
“Also recorded” adds a separate entry of the source. Structures can show the parent of a compound that is named as a salt.

Tests used:
[1] = system: deep dermal burn injuries; assay: Porcine burn injury model; assay type: in vivo, pigs; conditions: 3% topical daily for 4 weeks
Method: Pigs received 4×25 cm^2 deep dermal burn injuries, 2 on each flank. From the time of re-epithelialisation, on each pig, 2 wounds were treated with 3% Compound 1 cream daily for 4 weeks and 2 received control cream. Pigs were euthanized and tissue was processed for analysis.

[2] = system: scar tissue after excision of dermal tissue; assay: Rodent injury model; assay type: in vivo, mice; conditions: 1% solution topical
Method: Mice received injury by excision of dermal tissue. In the treatment group, 1% Compound 1 solution was applied topically from 24 hours post injury to 1 week post injury. Wounds were then left to heal for an additional week. Mice were euthanized at 14 days post injury and the tissue was analyzed for collagen I content, and changes in gross morphology and histology.

rhSSAO = rhSSAO (Homo sapiens (Human), UniProt Q16853); assay: Measurement of substrate turnover by SSAO; assay type: biochemical; conditions: compound 2.5 mM, relative to background (dimethyl sulfoxide only)
rhSSAO, sequence (Q16853 whole entry): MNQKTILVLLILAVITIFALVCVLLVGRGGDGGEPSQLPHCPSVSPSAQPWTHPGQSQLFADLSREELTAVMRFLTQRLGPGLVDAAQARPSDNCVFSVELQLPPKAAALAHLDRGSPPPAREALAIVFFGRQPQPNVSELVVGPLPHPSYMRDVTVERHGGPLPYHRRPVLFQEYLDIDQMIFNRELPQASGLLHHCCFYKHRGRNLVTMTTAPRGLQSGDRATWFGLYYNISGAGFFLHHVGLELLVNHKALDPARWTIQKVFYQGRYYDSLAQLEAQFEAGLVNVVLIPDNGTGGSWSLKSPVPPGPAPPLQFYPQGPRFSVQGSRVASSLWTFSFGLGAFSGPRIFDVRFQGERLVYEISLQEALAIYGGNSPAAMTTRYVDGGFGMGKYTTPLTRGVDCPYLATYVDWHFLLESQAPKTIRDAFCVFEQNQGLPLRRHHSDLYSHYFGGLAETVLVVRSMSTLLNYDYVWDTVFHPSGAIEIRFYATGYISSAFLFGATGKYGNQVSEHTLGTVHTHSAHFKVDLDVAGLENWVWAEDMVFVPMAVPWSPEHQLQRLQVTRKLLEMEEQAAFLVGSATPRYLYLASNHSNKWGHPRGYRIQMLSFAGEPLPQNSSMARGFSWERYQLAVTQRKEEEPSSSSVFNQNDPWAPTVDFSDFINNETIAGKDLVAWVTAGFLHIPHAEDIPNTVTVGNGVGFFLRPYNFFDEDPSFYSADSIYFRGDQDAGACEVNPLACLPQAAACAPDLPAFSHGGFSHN
Method: In brief, the assay employed determines the substrate propensity of a compound relative to background (dimethyl sulfoxide only). Compound oxidation by rhSSAO was measured by fluorometric assay (Holt and Palcic, 2006). Briefly, rhSSAO was incubated for 2 hours at 37° C. in HEPES buffer before the addition of an equal volume of Amplex Red ([…]), horseradish peroxidase (4 U/ml), and Compound (2.5 mM) in the same buffer. The kinetics of the formation of resorufin was measured immediately using Optima reader (BMG Labtech GmbH, Ortenburg, Germany), at 37° C.

[3] = system: CCl4 hepatic fibrosis / 4t1 metastasis; assay: CCl4 induced liver fibrosis with orthotopic 4t1 breast cancer cells (fibrosis associated metastasis); assay type: in vivo, BALB/c mice; conditions: 20 mg/kg daily ip
Method: Hepatic fibrosis was induced by treated of BALB/c mice twice weekly with 1 mg/kg carbon tetrachloride (CCl4) for a period of 8 wks.

kidney fibrosis (UUO) = assay: Unilateral ureteral obstruction (UUO) model of acute kidney fibrosis; assay type: in vivo, mice; conditions: 10 mg/kg daily orally, 14 days
Method: A 14-day unilateral ureteric obstruction (UUO) model of acute kidney fibrosis in mice was conducted to mimic the different stages of obstructive nephropathy leading to tubulointerstitial fibrosis in an accelerated manner UUO surgery was performed by ligation of the left ureter and induced decrease of left kidney thickness and atrophy (indicated by a significant decrease in kidney weight and ratio of kidney/body weight when compared to the contralateral side) as well as a significant increase in kidney fibrosis. Treatment groups received Compound 33 (10 mg/kg daily) orally for the duration of the study. Compound 33 increased kidney weight and thickness and reduced the area of fibrosis as measured by Picrosirius Red (FIG. 9). Captopril (˜32 mg/kg/day in drinking water) was used as a positive control.

lysyl oxidase = assay: Target engagement: lysyl oxidase activity in the aorta; assay type: in vivo, Wistar rats
Method: Sample preparation: All preparation activities were performed on ice, with buffers in presence of proteases inhibitors (PMSF: Sigma P7626, 0.25 mM, Aprotinin: Sigma A6279, 1 μL per mL) (Methods in Cell Biology, 2018; 143: 147-156). The surrounding adventitia and muscle/fat from the frozen aorta sample was removed in ice-cold Wash Buffer (0.15 M NaCl, 50 mM sodium borate, pH=8.0, with protease inhibitors) using fine forceps, under a dissecting microscope. The aorta was blotted on a Kimwipe and weighed in a 1.5 mL Eppendorf tube and left on ice. After snap-freezing the aorta in liquid nitrogen, a mortar and the pestle (stored at −80° C.) was used to pulverize the tissue. The pulverized tissue was transferred to a designated tube containing metal beads, 10× v/w Wash Buffer+protease inhibitors. The tissues was homogenized for 5 seconds using a bead-mill. The homogenate was centrifuged at 10,000×g for 10 minutes at 4° C. and the supernatant was discarded. Homogenization and washing steps were repeated twice more. […]
Assay: Pargyline (final concentration 0.5 mM) and mofegiline (final concentration 1 μM) were added to the samples. […] Plate fluorescence was then measured every 2.5 min (Ex: 544 nm/Em: 590 nm/gain: 1260; 37° C.) on Fluostar™.
[…] The responses were normalised to the activity measured in animals treated with saline (control).

[4] = system: bleomycin-induced lung fibrosis; assay: Bleomycin-induced lung fibrosis model; assay type: in vivo, C57Bl/6 mice; conditions: daily oral gavage for 21 days
Method: C57Bl/6 mice were given 1.5 U/kg amounts of generic clinical Bleomycin (Blenoxane) via oropharyngeal administration. Compound 33 was dosed daily via oral gavage for 21 days, after which time, tissues were harvested and analyzed.

[5] = vs control cream, hydrochloride

NC/C=C(\F)CS(=O)(=O)c1ccccc1 [Compound 1, (Z)-3-fluoro-4-(phenylsulfonyl)but-2-en-1-amine hydrochloride] was tested, and the “Gross morphology and histology: thick collagen fibers” value [1] was “reduced density”, the “LOX activity in treated tissue” value [1, 5] was “reduction; also recorded: significantly reduced” and the “total collagen I protein” value [1, 5] was “reduction; also recorded: significantly reduced”. For the same molecule, the “Collagen I quantity (LCMS, normalized for protein content)” value ([2]; 24 hours to 1 week post injury, analysis 14 days post injury, vs control, hydrochloride) was “reduction in collagen; also recorded: reduced”, the “Histology: collagen bundles in scar tissue” value ([2]; 14 days post injury) was “decreased density of bundles” and the “Substrate activity for rhSSAO” value (rhSSAO) was “no significant turnover”.

For NC/C=C(\F)CS(=O)(=O)c1cccc2cccnc12 [Compound 33, (Z)-3-fluoro-4-(quinolin-8-ylsulfonyl)but-2-en-1-amine dihydrochloride], the “collagen cross-links in the liver” value [3] was “significantly reduced”, the “primary tumor growth or collagen cross-links (primary tumor)” value [3] was “No differences” and the liver fibrosis ([3]; 8 wks CCl4) was “significantly reduced”. The “metastatic load in the liver” value ([3]; dihydrochloride) was “reduce; also recorded: significantly reduced”, the “area of fibrosis as measured by Picrosirius Red” value (kidney fibrosis (UUO)) was “reduced” and the “kidney weight and thickness” value (kidney fibrosis (UUO)) was “increased”. For the same molecule, the “half-life of recovery of lysyl oxidase activity (aorta)” value (lysyl oxidase; single oral dose) was 24 h, the “lysyl oxidase enzymatic activity in rat aorta” value (lysyl oxidase; single oral dose at 5, 10 or 30 mg/kg, vs untreated control) was “dose-dependent block” and the lung weight [4] was “significantly reduced”. The “reduction of immature (DHLNL) cross-links per lung” value [4] was 37%, the “reduction of mature (PYD) cross-links per lung” value [4] was 45% and the Ashcroft score ([4]; dihydrochloride) was “reduce; also recorded: significantly reduced”.
